From patent publication USRE40086E1, “Method for treating bacterial infection with novel 7-substituted-9-substituted amino 6-demethyl-6-deoxytetracyclines” (Wyeth Holdings Corporation, priority 1991, dated 2008)

Tests used:
E. coli ATCC 25922 = assay: MIC, agar dilution; format: cell-based; details: E. coli ATCC 25922; Table IA; unit assumed
E. faecalis 12201 = assay: MIC, agar dilution; format: cell-based; details: Enterococcus 12201; Table IA; unit assumed
[1] = test system: S. haemolyticus AVAH 88-3; assay: MIC, agar dilution; format: cell-based; details: S. hemolyticus AVHAH 88-3; Table IA; unit assumed
[2] = test system: S. aureus UBMS 90-2 (tetM); assay: MIC, agar dilution; format: cell-based; details: S. aureus UBMS 90-2 TetM; Table IA; unit assumed
E. coli J3272 Tet sens. = assay: MIC, agar dilution (Table IA); format: cell-based; details: unit assumed
[3] = test system: S. aureus IVES 1983 (meth. resistant); assay: MIC, agar dilution; format: cell-based; details: S. aureus IVES 1983; Table IA; unit assumed
[4] = test system: S. aureus UBMS 90-1 (tetM); assay: MIC, agar dilution; format: cell-based; details: S. aureus UBMS 90-1 TetM; Table IA; unit assumed
[5] = test system: S. aureus ATCC 29213 (Sensitive); assay: MIC, agar dilution; format: cell-based; details: S. aureus ATCC 29213; Table IA; unit assumed
E. coli UBMS 89-1 (tetM) = assay: MIC, agar dilution; format: cell-based; details: E. coli UBMS 89-1 TetM; Table IA; unit assumed
S. aureus ROSE (MP) = assay: MIC, agar dilution (Table IA); format: cell-based; details: unit assumed
E. faecalis ATCC 29212 = assay: MIC, agar dilution; format: cell-based; details: E. faecalis ATCC 29212; Table IA; unit assumed
E. coli MC4100 TetB = assay: MIC, agar dilution (Table IA); format: cell-based; details: unit assumed
E. coli #311 (MP) = assay: MIC, agar dilution (Table IA); format: cell-based; details: unit assumed
E. coli J2175 = assay: MIC, agar dilution (Table IA); format: cell-based; details: unit assumed
[6] = test system: Ps. acruginosa ATCC 27853; assay: MIC, agar dilution (Table IA); format: cell-based; details: unit assumed
[7] = test system: S. aureus UBMS 88-7 (tetK); assay: MIC, agar dilution; format: cell-based; details: S. aureus UBMS 88-7 TetK; Table IA; unit assumed
E. coli J3272 TetC = assay: MIC, agar dilution (Table IA); format: cell-based; details: unit assumed
[8] = test system: S. aureus Smith (Sensitive); assay: MIC, agar dilution; format: cell-based; details: S. aureus SMITH (MP); Table IA; unit assumed
E. coli BAJ9003 = assay: MIC, agar dilution (Table IA); format: cell-based; details: unit assumed
E. coli PRP1 TetA = assay: MIC, agar dilution (Table IA); format: cell-based; details: unit assumed
E. coli J3272 TetD = assay: MIC, agar dilution (Table IA); format: cell-based; details: unit assumed
[9] = test system: S. aureus UBMS 88-4 (Sensitive); assay: MIC, agar dilution; format: cell-based; details: S. aureus UBMS 88-4; Table IA; unit assumed
E. coli UBMS 90-4 (tetM) = assay: MIC, agar dilution; format: cell-based; details: E. coli UBMS 90-4 TetM; Table IA; unit assumed
[10] = test system: X. maltophilia NEMC 87210; assay: MIC, agar dilution (Table IA); format: cell-based; details: unit assumed
E. coli UBMS 90-5 = assay: MIC, agar dilution (Table IA); format: cell-based; details: unit assumed
[11] = test system: E. coli UBMS 89-2 (Sensitive); assay: MIC, agar dilution; format: cell-based; details: E. coli UBMS 89-2 Tet Sens.; Table IA; unit assumed
S. aureus SMITH (sens) [12] = assay: In vivo antibacterial evaluation, acute lethal infection in mice; details: Oral
Excerpt: In Vivo Antibacterial Evaluation (Table VII)

S. aureus SMITH (sens) [13] = assay: as above; details: Intraveneous
S. mariescens FDOR 8733 = assay: MIC, agar dilution (Table IA); format: cell-based; details: unit assumed
[14] = test system: S. aureus UBMS 90-3 (Sensitive); assay: MIC, agar dilution; format: cell-based; details: S. aureus UBMS 90-3; Table IA; unit assumed
E. coli UBMS 88-1 (tetB) = assay: MIC, agar dilution; format: cell-based; details: E. coli UBMS 88-1 TetB; Table IA; unit assumed
[15] = test system: S. aureus UBMS 88-5 (tetM); assay: MIC, agar dilution; format: cell-based; details: S. aureus UBMS 88-5 TetM; Table IA; unit assumed
S. aureus NEMC 8769/89-4 = assay: MIC, agar dilution (Table IA); format: cell-based; details: unit assumed
[16] = test system: S. aureus IVES 2943 (meth. resistant); assay: MIC, agar dilution; format: cell-based; details: S. aureus IVES 2943; Table IA; unit assumed

Row | SMILES | Antibacterial activity (MIC) (E. coli ATCC 25922) [µg/mL] | Antibacterial activity (MIC) (E. faecalis 12201) [µg/mL] | Antibacterial activity (MIC) [1] [µg/mL] | Antibacterial activity (MIC) [2] [µg/mL] | Antibacterial activity (MIC) (E. coli J3272 Tet sens.) [µg/mL] | Antibacterial activity (MIC) [3] [µg/mL] | Antibacterial activity (MIC) [4] [µg/mL] | Antibacterial activity (MIC) [5] [µg/mL] | Antibacterial activity (MIC) (E. coli UBMS 89-1 (tetM)) [µg/mL] | Antibacterial activity (MIC) (S. aureus ROSE (MP)) [µg/mL] | Antibacterial activity (MIC) (E. faecalis ATCC 29212) [µg/mL] | Antibacterial activity (MIC) (E. coli MC4100 TetB) [µg/mL] | Antibacterial activity (MIC) (E. coli #311 (MP)) [µg/mL] | Antibacterial activity (MIC) (E. coli J2175) [µg/mL] | Antibacterial activity (MIC) [6] [µg/mL] | Antibacterial activity (MIC) [7] [µg/mL] | Antibacterial activity (MIC) (E. coli J3272 TetC) [µg/mL] | Antibacterial activity (MIC) [8] [µg/mL] | Antibacterial activity (MIC) (E. coli BAJ9003) [µg/mL] | Antibacterial activity (MIC) (E. coli PRP1 TetA) [µg/mL] | also measured
1 | CNC(C)C(=O)Nc1cc(N(C)C)c2c(c1O)C(=O)C1=C(O)[C@]3(O)C(=O)C(C(N)=O)=C(O)[C@@H](N(C)C)C3CC1C2.Cl.Cl (stereo partly drawn) [YY, [4S-(4alpha,12aalpha))-4,7-Bis(dimethylamino)-1,4,4a,5,5a,6,11,12a-octahydro-3,10,12,12a-tetrahydroxy-9-[[2-(methylamino)-1-oxopropyl]amino]-1,11-dioxo-2-naphthacenecarboxamide dihydrochloride] | 0.5 | 0.25 | 0.5 | 0.25 | 0.5 | 4 | 0.25 | 0.5 | 0.5 | 8 | 0.12 | 0.5 | 0.5 | 0.5 | 16 | 4 | 1 | 0.25 | 0.06 | 2 | Antibacterial activity (MIC) (E. coli J3272 TetD): 0.25 µg/mL; Antibacterial activity (MIC) [9]: 0.5 µg/mL; Antibacterial activity (MIC) (E. coli UBMS 90-4 (tetM)): 0.5 µg/mL; Antibacterial activity (MIC) [10]: 4 µg/mL; Antibacterial activity (MIC) (E. coli UBMS 90-5): 0.5 µg/mL; Antibacterial activity (MIC) [11]: 0.5 µg/mL; ED50 (S. aureus SMITH (sens) [12]): >16 mg/kg; ED50 (S. aureus SMITH (sens) [13]): 0.5 to 1 mg/kg; Antibacterial activity (MIC) (S. mariescens FDOR 8733): 8 µg/mL; Antibacterial activity (MIC) [14]: 0.12 µg/mL; Antibacterial activity (MIC) (E. coli UBMS 88-1 (tetB)): 0.5 µg/mL; Antibacterial activity (MIC) [15]: 0.5 µg/mL; Antibacterial activity (MIC) (S. aureus NEMC 8769/89-4): 0.12 µg/mL; Antibacterial activity (MIC) [16]: 8 µg/mL
2 | CCCCNCC(=O)Nc1cc(N(C)C)c2c(c1O)C(=O)C1=C(O)C3(O)C(=O)C(C(N)=O)=C(O)C(N(C)C)C3CC1C2.Cl.Cl (stereo not drawn) [PP, [4S-(4alpha,12aalpha)]-4,7-Bis(dimethylamino)-9-[[(butylamino)acetyl]amino)-1,4,4a,5,5a,6,11,12a-octahydro-3,10,12,12a-tetrahydroxy-1,11-dioxo-2-naphthacenecarboxamide dihydrochloride] | 0.25 | 0.12 | 0.25 | 0.5 | 0.5 | 2 | 0.5 | 0.25 | 0.25 | 2 | 0.12 | 0.5 | 0.25 | 0.25 | 16 | 2 | 0.5 | 0.12 | 0.12 | 1 | Antibacterial activity (MIC) (E. coli J3272 TetD): 0.25 µg/mL; Antibacterial activity (MIC) [9]: 0.25 µg/mL; Antibacterial activity (MIC) (E. coli UBMS 90-4 (tetM)): 0.25 µg/mL; Antibacterial activity (MIC) [10]: 0.5 µg/mL; Antibacterial activity (MIC) (E. coli UBMS 90-5): 0.5 µg/mL; Antibacterial activity (MIC) [11]: 0.5 µg/mL; ED50 (S. aureus SMITH (sens) [12]): >16 mg/kg; ED50 (S. aureus SMITH (sens) [13]): 1 to 2 mg/kg; Antibacterial activity (MIC) (S. mariescens FDOR 8733): 2 µg/mL; Antibacterial activity (MIC) [14]: 0.25 µg/mL; Antibacterial activity (MIC) (E. coli UBMS 88-1 (tetB)): 0.5 µg/mL; Antibacterial activity (MIC) [15]: 0.5 µg/mL; Antibacterial activity (MIC) (S. aureus NEMC 8769/89-4): 0.12 µg/mL; Antibacterial activity (MIC) [16]: 2 µg/mL
